According to paper PMC5421785, “Citrullination only infrequently impacts peptide binding to HLA class II MHC” (PLoS ONE, 2017):
Read-outs that look alike come from different tables or passages of the source.

Experiments:
HLA-DRB1*01:01 = target: T1, HLA-DRB1*01:01 (Homo sapiens, UniProt P01903+P01911, A100R/D57E/F55L/F60I/F76Y/I96L/L162R/M171V/P40L/Q125E/R42F/V115G/Y59C); assay: HLA class II peptide binding, inhibition of radiolabeled peptide binding to purified MHC; conditions: read-out: DRB1*01:01 binding capacity, WT peptide (IC50 nM)
T1 construct: EBV transformed homozygous cell lines were used as sources of MHC molecules; endogenous in cells; host or cells: EBV transformed homozygous cell lines

HLA-DRB1*04:01 = target: T2, HLA-DRB1*04:01 (Homo sapiens, UniProt P01903+P01911, A100K/A169T/F76Y/I96L/K127E/L162R/M171V/N62H/P40V/Q125Y/R42H/S133A/S149N/S66Y/V115G/V209L/W38E); assay: as above; conditions: read-out: DRB1*04:01 binding capacity, WT peptide (IC50 nM)
T2 construct: EBV transformed homozygous cell lines were used as sources of MHC molecules; endogenous in cells; host or cells: EBV transformed homozygous cell lines

[1] = wild-type (unmodified Arg) 15-mer peptide, purified HLA-DRB1*01:01
[2] = wild-type (unmodified Arg) 15-mer peptide, purified HLA-DRB1*04:01

Structure (SMILES) | IC50 (HLA-DRB1*01:01) [nM] | IC50 (HLA-DRB1*04:01) [nM] | IC50 (HLA-DRB1*01:01; [1]) [nM] | IC50 (HLA-DRB1*04:01; [2]) [nM]
CC[C@H](C)[C@H](NC(=O)[C@H](Cc1ccc(O)cc1)NC(=O)[C@H](CC(N)=O)NC(=O)[C@H](C)NC(=O)[C@H](Cc1ccccc1)NC(=O)[C@H](CCCNC(=N)N)NC(=O)[C@H](CC(=O)O)NC(=O)[C@H](CC(N)=O)NC(=O)[C@H](CC(C)C)NC(=O)[C@H](CCC(=O)O)NC(=O)[C@H](CCC(N)=O)NC(=O)[C@H](CC(C)C)NC(=O)[C@@H](N)CCC(=O)O)C(=O)N[C@@H](CC(=O)O)C(=O)N[C@@H](CCCCN)C(=O)O [Vimentin 106 WT] | 3070 | > 40000 | – | –
CC[C@H](C)[C@H](NC(=O)[C@H](CCCCN)NC(=O)[C@H](CC(N)=O)NC(=O)[C@H](CCC(N)=O)NC(=O)[C@H](CCC(N)=O)NC(=O)[C@H](CCC(=O)O)NC(=O)[C@H](CC(C)C)NC(=O)[C@H](Cc1ccccc1)NC(=O)[C@H](CCCNC(=N)N)NC(=O)[C@@H](N)C(C)C)C(=O)N[C@@H](CC(C)C)C(=O)N[C@@H](CC(C)C)C(=O)N[C@@H](C)C(=O)N[C@@H](CCC(=O)O)C(=O)N[C@@H](CC(C)C)C(=O)O [Vimentin 121 WT] | 5.7 | 513 | – | –
CC(C)C[C@H](NC(=O)[C@H](CCCNC(=N)N)NC(=O)[C@H](CO)NC(=O)[C@H](CCCCN)NC(=O)CNC(=O)[C@H](CCC(N)=O)NC(=O)CNC(=O)[C@H](CCCCN)NC(=O)[C@H](CC(C)C)NC(=O)[C@H](CCC(N)=O)NC(=O)[C@@H](N)CCC(=O)O)C(=O)NCC(=O)N[C@@H](CC(=O)O)C(=O)N[C@@H](CC(C)C)C(=O)N[C@@H](Cc1ccc(O)cc1)C(=O)O [Vimentin 136 WT] | 3720 | > 40000 | – | –
CSCC[C@H](NC(=O)[C@H](CCC(=O)O)NC(=O)[C@H](CCC(=O)O)NC(=O)[C@H](CCC(=O)O)NC(=O)[C@H](Cc1ccc(O)cc1)NC(=O)[C@H](CC(C)C)NC(=O)[C@H](CC(=O)O)NC(=O)CNC(=O)[C@@H](N)CC(C)C)C(=O)N[C@@H](CCCNC(=N)N)C(=O)N[C@@H](CCC(=O)O)C(=O)N[C@@H](CC(C)C)C(=O)N[C@@H](CCCNC(=N)N)C(=O)N[C@@H](CCCNC(=N)N)C(=O)N[C@@H](CCC(N)=O)C(=O)O [Vimentin 146 WT] | 9380 | 38500 | – | –
CC[C@H](C)[C@H](NC(=O)[C@H](CCC(=O)O)NC(=O)[C@H](CC(=O)O)NC(=O)[C@@H](N)CCC(N)=O)C(=O)N[C@@H](CCC(N)=O)C(=O)N[C@@H](CC(N)=O)C(=O)N[C@@H](CCSC)C(=O)N[C@@H](CCCCN)C(=O)N[C@@H](CCC(=O)O)C(=O)N[C@@H](CCC(=O)O)C(=O)N[C@@H](CCSC)C(=O)N[C@@H](C)C(=O)N[C@@H](CCCNC(=N)N)C(=O)N[C@@H](Cc1c[nH]cn1)C(=O)N[C@@H](CC(C)C)C(=O)O [Vimentin 366 WT] | – | – | 7110 | 4550
CSCC[C@H](NC(=O)[C@H](CCC(=O)O)NC(=O)[C@H](CCC(=O)O)NC(=O)[C@H](CCCCN)NC(=O)[C@H](CCSC)NC(=O)[C@@H](N)CC(N)=O)C(=O)N[C@@H](C)C(=O)N[C@@H](CCCNC(=N)N)C(=O)N[C@@H](Cc1c[nH]cn1)C(=O)N[C@@H](CC(C)C)C(=O)N[C@@H](CCCNC(=N)N)C(=O)N[C@@H](CCC(=O)O)C(=O)N[C@@H](Cc1ccc(O)cc1)C(=O)N[C@@H](CCC(N)=O)C(=O)N[C@@H](CC(=O)O)C(=O)O [Vimentin 371 WT] | – | – | 3020 | > 40000
CC[C@H](C)[C@H](NC(=O)[C@H](CC(=O)O)NC(=O)[C@H](CC(C)C)NC(=O)[C@H](C)NC(=O)[C@H](CCSC)NC(=O)[C@H](CCCCN)NC(=O)[C@@H](NC(=O)[C@H](CC(N)=O)NC(=O)[C@H](CC(C)C)NC(=O)[C@H](CC(C)C)NC(=O)[C@H](CC(=O)O)NC(=O)[C@H](CCC(N)=O)NC(=O)[C@H](Cc1ccc(O)cc1)NC(=O)[C@H](CCC(=O)O)NC(=O)[C@@H](N)CCCNC(=N)N)C(C)C)C(=O)O [Vimentin 381 WT] | – | – | 192 | 1220
CC[C@H](C)[C@H](NC(=O)[C@H](CCCNC(=N)N)NC(=O)[C@H](CO)NC(=O)[C@H](CCC(=O)O)NC(=O)[C@H](CCC(=O)O)NC(=O)CNC(=O)[C@H](CCC(=O)O)NC(=O)[C@H](CC(C)C)NC(=O)[C@H](CC(C)C)NC(=O)[C@H](CCCCN)NC(=O)[C@@H](N)CCCNC(=N)N)C(=O)N[C@@H](CO)C(=O)N[C@@H](CC(C)C)C(=O)N1CCC[C@H]1C(=O)N[C@@H](CC(C)C)C(=O)O [Vimentin 401 WT] | – | – | 1920 | 2710
CC[C@H](C)[C@H](N)C(=O)N[C@@H](CO)C(=O)N[C@@H](CC(C)C)C(=O)N1CCC[C@H]1C(=O)N[C@@H](CC(C)C)C(=O)N1CCC[C@H]1C(=O)N[C@@H](CC(N)=O)C(=O)N[C@@H](Cc1ccccc1)C(=O)N[C@@H](CO)C(=O)N[C@@H](CO)C(=O)N[C@@H](CC(C)C)C(=O)N[C@@H](CC(N)=O)C(=O)N[C@@H](CC(C)C)C(=O)N[C@@H](CCCNC(=N)N)C(=O)N[C@@H](CCC(=O)O)C(=O)O [Vimentin 411 WT] | – | – | 326 | 7000
